According to the NIST ThermoML archive (doi:10.1021/je034062r):
± gives the expanded uncertainty stated by the source.

Assay: xn = mol fraction of the nth substance listed
Settings: for mass density: Liquid; for surface tension liquid-gas: Pendant drop shape

CC(C)=O [acetone] + Cc1ccccc1
Settings	mass density [kg/m3]	surface tension liquid-gas [mN/m]
283.15 K, x2 = 0	803.2 ± 1.7	–
283.15 K, x2 = 0.1	815.1 ± 1.7	–
283.15 K, x2 = 0.2002	823.5 ± 1.6	–
283.15 K, x2 = 0.3002	832.2 ± 1.6	–
283.15 K, x2 = 0.3997	841.2 ± 1.5	–
283.15 K, x2 = 0.4973	847.6 ± 1.5	–
283.15 K, x2 = 0.6011	854.7 ± 1.4	–
283.15 K, x2 = 0.7004	860.8 ± 1.4	–
283.15 K, x2 = 0.7998	866.4 ± 1.3	–
283.15 K, x2 = 0.8982	871.5 ± 1.3	–
287.81 K, x2 = 0	–	23.94 ± 0.27
287.81 K, x2 = 0.1	–	24.56 ± 0.27
287.81 K, x2 = 0.2002	–	25.24 ± 0.28
287.81 K, x2 = 0.3002	–	25.89 ± 0.29
287.81 K, x2 = 0.3997	–	26.46 ± 0.29
287.81 K, x2 = 0.4973	–	27.1 ± 0.3
287.81 K, x2 = 0.6011	–	27.68 ± 0.3
287.81 K, x2 = 0.7004	–	28.24 ± 0.3
287.81 K, x2 = 0.7998	–	28.48 ± 0.31
287.81 K, x2 = 0.8982	–	28.73 ± 0.31
288.15 K, x2 = 0	798.2 ± 1.8	–
288.15 K, x2 = 0.1	809.8 ± 1.7	–
288.15 K, x2 = 0.2002	818.2 ± 1.6	–
288.15 K, x2 = 0.3002	826.8 ± 1.6	–
288.15 K, x2 = 0.3997	836.1 ± 1.5	–
288.15 K, x2 = 0.4973	842.6 ± 1.5	–
288.15 K, x2 = 0.6011	849.9 ± 1.4	–
288.15 K, x2 = 0.7004	856 ± 1.4	–
288.15 K, x2 = 0.7998	861.7 ± 1.4	–
288.15 K, x2 = 0.8982	866.9 ± 1.3	–
293.15 K, x2 = 0	792.6 ± 1.8	–
293.15 K, x2 = 0.1	804.2 ± 1.7	–
293.15 K, x2 = 0.2002	812.5 ± 1.7	–
293.15 K, x2 = 0.3002	821.4 ± 1.6	–
293.15 K, x2 = 0.3997	830.7 ± 1.6	–
293.15 K, x2 = 0.4973	837.3 ± 1.5	–
293.15 K, x2 = 0.6011	844.6 ± 1.5	–
293.15 K, x2 = 0.7004	850.9 ± 1.4	–
293.15 K, x2 = 0.7998	856.6 ± 1.4	–
293.15 K, x2 = 0.8982	861.9 ± 1.4	–
297.82 K, x2 = 0	–	22.78 ± 0.26
297.82 K, x2 = 0.1	–	23.28 ± 0.26
297.82 K, x2 = 0.2002	–	23.78 ± 0.27
297.82 K, x2 = 0.3002	–	24.36 ± 0.27
297.82 K, x2 = 0.3997	–	24.93 ± 0.28
297.82 K, x2 = 0.4973	–	25.55 ± 0.28
297.82 K, x2 = 0.6011	–	26 ± 0.29
297.82 K, x2 = 0.7004	–	26.5 ± 0.29
297.82 K, x2 = 0.7998	–	27.1 ± 0.3
297.82 K, x2 = 0.8982	–	27.33 ± 0.3
298.15 K, x2 = 0	787 ± 1.8	–
298.15 K, x2 = 0.1	798.8 ± 1.8	–
298.15 K, x2 = 0.2002	807.1 ± 1.7	–
298.15 K, x2 = 0.3002	816.1 ± 1.7	–
298.15 K, x2 = 0.3997	825.6 ± 1.6	–
298.15 K, x2 = 0.4973	832.3 ± 1.6	–
298.15 K, x2 = 0.6011	839.7 ± 1.5	–
298.15 K, x2 = 0.7004	846.1 ± 1.5	–
298.15 K, x2 = 0.7998	851.9 ± 1.4	–
298.15 K, x2 = 0.8982	857.3 ± 1.4	–
303.15 K, x2 = 0	781.2 ± 1.9	–
303.15 K, x2 = 0.1	793.3 ± 1.8	–
303.15 K, x2 = 0.2002	801.6 ± 1.7	–
303.15 K, x2 = 0.3002	810.8 ± 1.7	–
303.15 K, x2 = 0.3997	820.4 ± 1.6	–
303.15 K, x2 = 0.4973	827.2 ± 1.6	–
303.15 K, x2 = 0.6011	834.7 ± 1.5	–
303.15 K, x2 = 0.7004	841.3 ± 1.5	–
303.15 K, x2 = 0.7998	847.2 ± 1.5	–
303.15 K, x2 = 0.8982	852.6 ± 1.4	–
307.86 K, x2 = 0	–	21.59 ± 0.25
307.86 K, x2 = 0.1	–	22.08 ± 0.25
307.86 K, x2 = 0.2002	–	22.58 ± 0.26
307.86 K, x2 = 0.3002	–	23.1 ± 0.26
307.86 K, x2 = 0.3997	–	23.77 ± 0.27
307.86 K, x2 = 0.4973	–	24.4 ± 0.27
307.86 K, x2 = 0.6011	–	25 ± 0.28
307.86 K, x2 = 0.7004	–	25.4 ± 0.28
307.86 K, x2 = 0.7998	–	26 ± 0.29
307.86 K, x2 = 0.8982	–	26.24 ± 0.29
308.15 K, x2 = 0	775.4 ± 1.9	–
308.15 K, x2 = 0.1	787.7 ± 1.8	–
308.15 K, x2 = 0.3002	805.5 ± 1.7	–
308.15 K, x2 = 0.3997	815.1 ± 1.7	–
308.15 K, x2 = 0.4973	822.1 ± 1.6	–
308.15 K, x2 = 0.6011	829.7 ± 1.6	–
308.15 K, x2 = 0.7004	836.4 ± 1.5	–
308.15 K, x2 = 0.7998	842.4 ± 1.5	–
308.15 K, x2 = 0.8982	847.9 ± 1.5	–
313.15 K, x2 = 0	769.6 ± 1.9	–
313.15 K, x2 = 0.1	782 ± 1.9	–
313.15 K, x2 = 0.2002	790.4 ± 1.8	–
313.15 K, x2 = 0.3002	800.1 ± 1.7	–
313.15 K, x2 = 0.3997	809.7 ± 1.7	–
313.15 K, x2 = 0.4973	816.9 ± 1.6	–
313.15 K, x2 = 0.6011	824.7 ± 1.6	–
313.15 K, x2 = 0.7004	831.4 ± 1.6	–
313.15 K, x2 = 0.7998	837.6 ± 1.5	–
313.15 K, x2 = 0.8982	843.2 ± 1.5	–
317.86 K, x2 = 0	–	20.33 ± 0.24
317.86 K, x2 = 0.1	–	20.9 ± 0.25
317.86 K, x2 = 0.2002	–	21.44 ± 0.25
317.86 K, x2 = 0.3002	–	22.18 ± 0.26
317.86 K, x2 = 0.3997	–	22.67 ± 0.26
317.86 K, x2 = 0.4973	–	23.25 ± 0.26
317.86 K, x2 = 0.6011	–	24.11 ± 0.27
317.86 K, x2 = 0.7004	–	24.4 ± 0.27
317.86 K, x2 = 0.7998	–	24.99 ± 0.28
317.86 K, x2 = 0.8982	–	25.2 ± 0.28
318.15 K, x2 = 0	762.5 ± 2	–
318.15 K, x2 = 0.1	776.2 ± 1.9	–
318.15 K, x2 = 0.2002	784.6 ± 1.8	–
318.15 K, x2 = 0.3002	794.6 ± 1.8	–
318.15 K, x2 = 0.3997	804.2 ± 1.7	–
318.15 K, x2 = 0.4973	811.6 ± 1.7	–
318.15 K, x2 = 0.6011	819.5 ± 1.6	–
318.15 K, x2 = 0.7004	826.4 ± 1.6	–
318.15 K, x2 = 0.7998	832.7 ± 1.5	–
318.15 K, x2 = 0.8982	838.4 ± 1.5	–
323.15 K, x2 = 0	756.2 ± 2	–
323.15 K, x2 = 0.1	770.2 ± 1.9	–
323.15 K, x2 = 0.2002	778.9 ± 1.9	–
323.15 K, x2 = 0.3002	789.1 ± 1.8	–
323.15 K, x2 = 0.3997	798.6 ± 1.8	–
323.15 K, x2 = 0.4973	806.3 ± 1.7	–
323.15 K, x2 = 0.6011	814.4 ± 1.7	–
323.15 K, x2 = 0.7998	827.7 ± 1.6	–
323.15 K, x2 = 0.8982	833.6 ± 1.5	–
327.88 K, x2 = 0	–	19.01 ± 0.23
327.88 K, x2 = 0.1	–	19.74 ± 0.24
327.88 K, x2 = 0.2002	–	20.32 ± 0.24
327.88 K, x2 = 0.3002	–	21.07 ± 0.25
327.88 K, x2 = 0.3997	–	21.8 ± 0.25
327.88 K, x2 = 0.4973	–	22.2 ± 0.26
327.88 K, x2 = 0.6011	–	22.97 ± 0.26
327.88 K, x2 = 0.7004	–	23.56 ± 0.27
327.88 K, x2 = 0.7998	–	23.83 ± 0.27
327.88 K, x2 = 0.8982	–	24.14 ± 0.27
328.15 K, x2 = 0	749.3 ± 2.1	–
328.15 K, x2 = 0.1	764 ± 2	–
328.15 K, x2 = 0.2002	773.2 ± 1.9	–
328.15 K, x2 = 0.3002	783.5 ± 1.9	–
328.15 K, x2 = 0.3997	792.9 ± 1.8	–
328.15 K, x2 = 0.4973	801 ± 1.7	–
328.15 K, x2 = 0.6011	809.2 ± 1.7	–
328.15 K, x2 = 0.7004	816.3 ± 1.6	–
328.15 K, x2 = 0.7998	822.8 ± 1.6	–
328.15 K, x2 = 0.8982	828.7 ± 1.6	–
333.15 K, x2 = 0	742.3 ± 2.1	–
333.15 K, x2 = 0.1	757.3 ± 2	–
333.15 K, x2 = 0.2002	767.5 ± 2	–
333.15 K, x2 = 0.3002	778.1 ± 1.9	–
333.15 K, x2 = 0.3997	787.3 ± 1.8	–
333.15 K, x2 = 0.4973	795.6 ± 1.8	–
333.15 K, x2 = 0.6011	803.9 ± 1.7	–
333.15 K, x2 = 0.7004	811.2 ± 1.7	–
333.15 K, x2 = 0.7998	817.8 ± 1.6	–
333.15 K, x2 = 0.8982	823.8 ± 1.6	–
